Values belong to the molecule of their own block, whether it stands above or below them.
Columns and labels:
[1] = target: Thyrotropin-releasing hormone receptor (Homo sapiens) (UniProt P34981); experiment: Selectivity interaction (Eurofins CEREP Diversity Profile (receptors and ion channels)) EUB0000279b TRH; conditions: at 10 µM
[2] = target: T1, Protein kinase C iota type (Homo sapiens) (UniProt P41743); experiment: Selectivity interaction (SelectScreen profiling (Invitrogen)) EUB0000607a PRKCI; conditions: at 2 µM
T1 sequence (whole entry): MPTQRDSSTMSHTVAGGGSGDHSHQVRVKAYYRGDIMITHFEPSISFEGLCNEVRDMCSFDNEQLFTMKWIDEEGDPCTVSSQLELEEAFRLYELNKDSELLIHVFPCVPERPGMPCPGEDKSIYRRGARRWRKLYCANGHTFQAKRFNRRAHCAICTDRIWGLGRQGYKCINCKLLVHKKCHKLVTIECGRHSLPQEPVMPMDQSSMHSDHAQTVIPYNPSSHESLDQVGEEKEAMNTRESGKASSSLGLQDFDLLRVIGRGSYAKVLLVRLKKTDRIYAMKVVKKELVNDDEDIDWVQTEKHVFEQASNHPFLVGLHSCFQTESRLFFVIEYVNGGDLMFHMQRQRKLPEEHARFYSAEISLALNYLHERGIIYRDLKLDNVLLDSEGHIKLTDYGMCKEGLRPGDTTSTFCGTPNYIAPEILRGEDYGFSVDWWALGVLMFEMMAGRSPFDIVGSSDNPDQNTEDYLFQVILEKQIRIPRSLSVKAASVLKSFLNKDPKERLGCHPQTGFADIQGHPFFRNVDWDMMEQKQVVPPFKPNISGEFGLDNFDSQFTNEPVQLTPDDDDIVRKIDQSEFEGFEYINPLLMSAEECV

[3] = target: Mitogen-activated protein kinase kinase kinase 21 (Homo sapiens) (UniProt Q5TCX8); experiment: Selectivity interaction (ActivX KiNativ screen (kinase selectivity in THP-1 cell lysates)) EUB0000639a MAP3K21; type: subcellular; conditions: lysate
[4] = target: DNA-dependent protein kinase catalytic subunit (Homo sapiens) (UniProt P78527); experiment: Selectivity interaction (ActivX KiNativ screen (kinase selectivity in THP-1 cell lysates)) EUB0000639a PRKDC; type: subcellular; conditions: lysate, at 1 µM
[5] = target: Atypical kinase COQ8A, mitochondrial (Homo sapiens, UniProt Q8NI60); experiment: Selectivity interaction (KinomeScan (DiscoverX)) EUB0000595a ADCK3; conditions: at 10 µM
[6] = target: Activin receptor type-2A (Homo sapiens) (UniProt P27037); experiment: Selectivity interaction (Ambit KINOMEscan and KiNATiv profiling in Jurkat cells) EUB0000090b ACVR2A; type: cell-based; conditions: at 1 µM
[7] = target: T2, Serine/threonine-protein kinase Sgk3 (Homo sapiens) (UniProt Q96BR1); experiment: Selectivity interaction (Kinase panel (KiNativ target engagement assay in Jurkat cells)) EUB0001635a SGK3; type: cell-based; conditions: at 1 µM
T2 sequence (whole entry): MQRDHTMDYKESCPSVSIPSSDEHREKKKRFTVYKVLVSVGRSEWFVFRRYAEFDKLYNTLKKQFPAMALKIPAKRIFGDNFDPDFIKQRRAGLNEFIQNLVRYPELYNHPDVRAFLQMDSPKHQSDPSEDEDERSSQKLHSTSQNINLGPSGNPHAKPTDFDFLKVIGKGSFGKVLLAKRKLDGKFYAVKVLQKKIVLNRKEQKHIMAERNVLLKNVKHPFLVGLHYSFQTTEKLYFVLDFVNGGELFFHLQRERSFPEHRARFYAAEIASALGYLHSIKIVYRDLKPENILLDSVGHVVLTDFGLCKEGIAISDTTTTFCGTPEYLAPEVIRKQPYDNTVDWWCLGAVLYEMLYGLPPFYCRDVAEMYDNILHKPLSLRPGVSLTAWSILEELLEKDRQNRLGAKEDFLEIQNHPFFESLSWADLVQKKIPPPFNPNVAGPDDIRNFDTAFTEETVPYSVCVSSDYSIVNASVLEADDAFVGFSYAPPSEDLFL

[8] = target: T3, Dual specificity mitogen-activated protein kinase kinase 5 (Homo sapiens) (UniProt Q13163); experiment: Selectivity interaction (Kinase panel (Carna Biosciences)) EUB0001542aTs MAP2K5; conditions: at 1 µM
T3 sequence (whole entry): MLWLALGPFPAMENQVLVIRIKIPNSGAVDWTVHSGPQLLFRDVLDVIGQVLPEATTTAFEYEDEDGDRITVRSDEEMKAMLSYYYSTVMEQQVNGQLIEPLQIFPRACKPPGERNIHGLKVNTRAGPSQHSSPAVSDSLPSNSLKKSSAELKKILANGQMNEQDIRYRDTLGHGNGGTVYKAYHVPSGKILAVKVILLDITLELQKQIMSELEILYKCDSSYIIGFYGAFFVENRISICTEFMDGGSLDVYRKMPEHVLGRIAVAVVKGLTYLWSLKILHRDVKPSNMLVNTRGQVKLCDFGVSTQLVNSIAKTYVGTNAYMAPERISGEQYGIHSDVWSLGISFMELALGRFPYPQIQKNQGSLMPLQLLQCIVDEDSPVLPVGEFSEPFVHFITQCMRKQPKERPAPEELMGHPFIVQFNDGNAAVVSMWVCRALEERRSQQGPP

[9] = target: Serine/threonine-protein kinase MARK2 (Homo sapiens) (UniProt Q7KZI7); experiment: Selectivity interaction (ActivX KiNativ screen (ex vivo kinase selectivity in human PBMCs)) EUB0001619a MARK2; type: cell-based; conditions: PBMC, at 1 µM

Sequence of Mitogen-activated protein kinase kinase kinase 21 (Homo sapiens) (Q5TCX8 whole entry): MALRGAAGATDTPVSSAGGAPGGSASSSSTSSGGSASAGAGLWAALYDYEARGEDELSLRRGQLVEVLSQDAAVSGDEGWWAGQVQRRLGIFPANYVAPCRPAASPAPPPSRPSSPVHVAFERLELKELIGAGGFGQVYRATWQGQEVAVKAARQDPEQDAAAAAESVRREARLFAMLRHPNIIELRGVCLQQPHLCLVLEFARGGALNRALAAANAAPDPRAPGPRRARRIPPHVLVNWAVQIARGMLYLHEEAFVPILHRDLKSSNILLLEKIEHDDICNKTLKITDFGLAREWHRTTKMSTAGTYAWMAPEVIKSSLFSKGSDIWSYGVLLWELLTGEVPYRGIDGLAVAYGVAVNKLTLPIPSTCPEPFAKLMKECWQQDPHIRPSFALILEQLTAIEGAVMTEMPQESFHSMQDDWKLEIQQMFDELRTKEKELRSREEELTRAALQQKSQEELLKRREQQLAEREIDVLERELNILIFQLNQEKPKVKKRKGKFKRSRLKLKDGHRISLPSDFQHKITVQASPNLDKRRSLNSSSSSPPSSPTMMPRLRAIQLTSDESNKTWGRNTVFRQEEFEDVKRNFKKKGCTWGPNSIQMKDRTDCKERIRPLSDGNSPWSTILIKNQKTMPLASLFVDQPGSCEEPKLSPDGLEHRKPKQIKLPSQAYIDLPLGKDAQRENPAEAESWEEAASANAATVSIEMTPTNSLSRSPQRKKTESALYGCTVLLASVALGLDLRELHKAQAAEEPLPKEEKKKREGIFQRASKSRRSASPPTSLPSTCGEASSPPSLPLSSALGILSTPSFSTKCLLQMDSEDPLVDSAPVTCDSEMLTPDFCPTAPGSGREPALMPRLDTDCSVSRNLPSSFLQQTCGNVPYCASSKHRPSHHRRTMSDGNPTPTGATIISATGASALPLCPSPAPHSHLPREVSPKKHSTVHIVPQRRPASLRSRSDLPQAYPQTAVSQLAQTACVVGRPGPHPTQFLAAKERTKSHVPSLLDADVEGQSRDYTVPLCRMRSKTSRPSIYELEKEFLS
Sequence of DNA-dependent protein kinase catalytic subunit (Homo sapiens) (P78527 whole entry): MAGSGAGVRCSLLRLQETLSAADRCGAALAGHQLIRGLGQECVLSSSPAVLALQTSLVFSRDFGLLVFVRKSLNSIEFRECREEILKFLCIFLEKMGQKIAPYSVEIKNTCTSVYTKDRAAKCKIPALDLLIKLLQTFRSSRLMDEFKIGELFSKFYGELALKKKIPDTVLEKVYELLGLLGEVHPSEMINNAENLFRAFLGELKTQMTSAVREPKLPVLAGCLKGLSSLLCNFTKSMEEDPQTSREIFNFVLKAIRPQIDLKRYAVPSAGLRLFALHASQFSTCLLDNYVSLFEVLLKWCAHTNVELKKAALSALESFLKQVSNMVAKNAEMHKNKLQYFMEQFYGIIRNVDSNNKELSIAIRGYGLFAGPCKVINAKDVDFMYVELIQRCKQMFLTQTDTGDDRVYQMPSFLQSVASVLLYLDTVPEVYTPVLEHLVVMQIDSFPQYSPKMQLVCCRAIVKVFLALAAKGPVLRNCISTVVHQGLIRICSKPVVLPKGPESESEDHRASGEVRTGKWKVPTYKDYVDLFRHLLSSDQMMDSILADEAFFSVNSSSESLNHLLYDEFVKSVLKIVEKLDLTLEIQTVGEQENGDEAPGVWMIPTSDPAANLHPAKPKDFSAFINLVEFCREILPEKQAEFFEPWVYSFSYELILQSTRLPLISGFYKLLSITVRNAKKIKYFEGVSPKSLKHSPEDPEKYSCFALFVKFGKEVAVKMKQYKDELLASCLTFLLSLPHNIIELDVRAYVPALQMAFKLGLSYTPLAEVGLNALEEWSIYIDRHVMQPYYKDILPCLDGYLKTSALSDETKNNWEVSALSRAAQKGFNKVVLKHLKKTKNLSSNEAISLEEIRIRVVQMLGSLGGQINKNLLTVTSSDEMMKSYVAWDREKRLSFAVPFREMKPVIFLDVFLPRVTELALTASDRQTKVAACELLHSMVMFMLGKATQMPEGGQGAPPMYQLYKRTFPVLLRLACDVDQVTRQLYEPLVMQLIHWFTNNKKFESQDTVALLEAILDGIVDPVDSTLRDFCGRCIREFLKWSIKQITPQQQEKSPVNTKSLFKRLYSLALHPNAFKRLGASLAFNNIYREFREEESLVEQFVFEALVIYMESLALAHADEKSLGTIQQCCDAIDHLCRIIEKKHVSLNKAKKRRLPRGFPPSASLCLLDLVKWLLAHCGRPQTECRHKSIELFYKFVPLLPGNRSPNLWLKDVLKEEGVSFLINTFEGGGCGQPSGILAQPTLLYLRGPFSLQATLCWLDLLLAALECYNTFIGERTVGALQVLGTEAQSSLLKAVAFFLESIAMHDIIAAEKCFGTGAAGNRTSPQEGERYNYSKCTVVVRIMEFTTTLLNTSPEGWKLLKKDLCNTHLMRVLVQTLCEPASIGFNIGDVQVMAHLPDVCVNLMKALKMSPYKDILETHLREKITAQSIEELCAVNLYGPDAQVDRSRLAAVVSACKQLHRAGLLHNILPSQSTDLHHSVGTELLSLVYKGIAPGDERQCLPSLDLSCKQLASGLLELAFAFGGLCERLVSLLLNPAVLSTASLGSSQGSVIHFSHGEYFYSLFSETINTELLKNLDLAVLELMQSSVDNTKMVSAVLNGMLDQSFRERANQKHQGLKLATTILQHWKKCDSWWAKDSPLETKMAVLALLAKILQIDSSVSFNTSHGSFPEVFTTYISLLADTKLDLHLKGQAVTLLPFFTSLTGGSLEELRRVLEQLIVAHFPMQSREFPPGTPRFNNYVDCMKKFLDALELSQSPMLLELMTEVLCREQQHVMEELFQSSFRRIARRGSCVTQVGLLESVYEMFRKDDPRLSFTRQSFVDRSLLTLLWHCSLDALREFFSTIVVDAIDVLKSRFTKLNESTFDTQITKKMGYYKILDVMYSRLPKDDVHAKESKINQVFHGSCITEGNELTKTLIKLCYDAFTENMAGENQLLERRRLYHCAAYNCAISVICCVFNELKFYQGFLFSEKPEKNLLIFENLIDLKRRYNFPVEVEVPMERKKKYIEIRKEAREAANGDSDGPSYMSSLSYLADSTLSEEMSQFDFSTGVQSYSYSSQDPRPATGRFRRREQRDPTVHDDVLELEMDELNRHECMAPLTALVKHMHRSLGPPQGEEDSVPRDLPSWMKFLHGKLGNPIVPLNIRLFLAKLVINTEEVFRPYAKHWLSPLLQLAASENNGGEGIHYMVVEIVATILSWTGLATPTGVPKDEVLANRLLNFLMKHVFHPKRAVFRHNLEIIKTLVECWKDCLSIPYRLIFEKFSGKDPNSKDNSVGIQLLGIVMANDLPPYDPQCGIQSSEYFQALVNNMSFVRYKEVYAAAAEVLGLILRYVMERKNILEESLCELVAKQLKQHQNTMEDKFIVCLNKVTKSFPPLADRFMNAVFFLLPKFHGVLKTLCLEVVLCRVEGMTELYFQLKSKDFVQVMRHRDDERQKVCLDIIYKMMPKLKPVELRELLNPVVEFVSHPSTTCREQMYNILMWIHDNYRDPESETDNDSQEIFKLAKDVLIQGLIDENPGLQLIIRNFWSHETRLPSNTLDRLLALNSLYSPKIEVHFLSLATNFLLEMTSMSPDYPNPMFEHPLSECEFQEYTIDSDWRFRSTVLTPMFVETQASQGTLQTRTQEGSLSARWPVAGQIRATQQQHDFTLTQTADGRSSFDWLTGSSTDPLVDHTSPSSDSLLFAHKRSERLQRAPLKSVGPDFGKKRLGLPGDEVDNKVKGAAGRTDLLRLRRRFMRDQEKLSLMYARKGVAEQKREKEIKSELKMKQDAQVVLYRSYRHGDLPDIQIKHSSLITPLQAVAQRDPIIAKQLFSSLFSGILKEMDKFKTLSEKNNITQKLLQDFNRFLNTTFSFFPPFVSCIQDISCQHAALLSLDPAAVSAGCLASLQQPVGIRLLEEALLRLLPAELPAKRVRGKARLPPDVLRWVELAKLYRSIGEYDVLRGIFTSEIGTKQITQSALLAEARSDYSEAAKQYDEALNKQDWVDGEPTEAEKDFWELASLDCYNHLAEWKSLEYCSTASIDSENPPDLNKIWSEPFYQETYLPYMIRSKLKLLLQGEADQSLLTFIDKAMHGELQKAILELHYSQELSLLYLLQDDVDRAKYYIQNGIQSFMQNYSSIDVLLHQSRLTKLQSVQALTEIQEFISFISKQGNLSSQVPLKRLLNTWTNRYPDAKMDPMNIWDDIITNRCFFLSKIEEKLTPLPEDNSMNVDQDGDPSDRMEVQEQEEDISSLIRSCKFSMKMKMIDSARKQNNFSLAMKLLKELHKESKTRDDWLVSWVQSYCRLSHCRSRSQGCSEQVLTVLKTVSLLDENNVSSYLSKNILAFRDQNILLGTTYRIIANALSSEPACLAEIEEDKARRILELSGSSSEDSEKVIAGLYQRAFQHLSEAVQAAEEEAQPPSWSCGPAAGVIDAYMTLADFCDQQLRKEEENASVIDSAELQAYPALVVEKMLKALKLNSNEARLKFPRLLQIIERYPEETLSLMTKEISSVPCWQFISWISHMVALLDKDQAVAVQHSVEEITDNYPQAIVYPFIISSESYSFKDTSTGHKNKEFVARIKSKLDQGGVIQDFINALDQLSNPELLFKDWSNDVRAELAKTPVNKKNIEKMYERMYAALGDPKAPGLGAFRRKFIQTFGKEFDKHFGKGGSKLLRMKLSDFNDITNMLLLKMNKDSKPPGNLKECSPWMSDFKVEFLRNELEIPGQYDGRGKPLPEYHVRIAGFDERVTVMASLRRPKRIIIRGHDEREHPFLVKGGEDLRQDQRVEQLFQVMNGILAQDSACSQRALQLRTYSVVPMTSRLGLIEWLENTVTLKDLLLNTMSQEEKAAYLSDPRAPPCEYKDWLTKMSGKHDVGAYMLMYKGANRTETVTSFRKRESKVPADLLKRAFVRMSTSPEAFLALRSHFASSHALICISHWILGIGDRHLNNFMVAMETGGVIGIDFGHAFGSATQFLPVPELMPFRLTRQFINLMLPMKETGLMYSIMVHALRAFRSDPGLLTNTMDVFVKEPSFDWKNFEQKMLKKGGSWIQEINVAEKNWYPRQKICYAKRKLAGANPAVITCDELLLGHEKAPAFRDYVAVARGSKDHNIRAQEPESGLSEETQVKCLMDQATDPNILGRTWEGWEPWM

% of control [1]: 94%
SMILES: CC(=O)c1cc(-c2ccccc2OCC2CC2)c2ncccn12

SMILES: CNC(=O)Nc1ccc(-c2nc(N3CC4CCC(C3)O4)c3cnn(C4CCC5(CC4)OCCO5)c3n2)cc1
% of inhibition [2]: 6%

% of inhibition ([3]; at 0.01 µM): 7.8%
% of inhibition ([3]; at 0.04 µM): 2%
% of inhibition ([3]; at 0.2 µM): 4.6%
% of inhibition ([3]; at 1 µM): 14%
% of inhibition ([3]; at 5 µM): 17%
% of inhibition [4]: 7.2%
SMILES: CC[C@@H]1[C@H](F)C(=O)N[C@@H]1COc1nccc2cc(C(N)=O)c(OC)cc12 [ZIMLOVISERTIB]

SMILES: COCC(=O)NC/C=C/c1ccc2ncnc(Nc3ccc(Oc4ccc(C)nc4)c(C)c3)c2c1 [CP-724714]
% of control [5]: 100%

SMILES: CN(C)C/C=C/C(=O)Nc1ccc(C(=O)N2CCCC(Nc3ncc(Cl)c(-c4c[nH]c5ccccc45)n3)C2)cc1 (centres undefined)
% of control [6]: 83%

SMILES: C=CC(=O)Nc1ccc(C(=O)Nc2[nH]nc3c2CN(C(=O)N[C@H](CN(C)C)c2ccccc2)C3(C)C)cc1
% of engagement ([7]; Selectivity number of off-targets 0.0, Selectivity number of targets 233.0, Source Knowledge https://www.sciencedirect.com/science/article/pii/S2451945619300674?via%3Dihub): 15.8%
% of engagement [7]: 6.4%

% of inhibition [8]: 70%
SMILES: Cn1cc(Nc2nccc(N3CC4CCC(C3)N4C(=O)[C@@H]3CC3(F)F)n2)cn1

SMILES: N#Cc1cccc(-c2c[nH]c3ncnc(N4CCOCC4)c23)c1
% of inhibition [9]: 27%
